Patent publication US7943606B2, “Compositions and methods to control abnormal cell growth” (CanCure Laboratories, LLC, priority 2005, dated 2011)

Legend:
[1] = Toxicological studies in mice; assay type: in vivo, mouse; settings: 200-500 μmole/animal
Procedure: Accordingly, a well-tolerated dose for CCDTHT in mice is 450 μmole/animal (weighing about 25 g) which corresponds to a dose of 4.6 mg/kg. Therapeutically effective concentrations in humans will exert maximal inhibitory effects on the growth of non-healthy tissues without causing significant toxicity in normal healthy tissues.
Parallel toxicological studies also have been performed with 200-500 μmole/animal doses of the commercially available CCompound1. […] CCompound26, which may have an even better toxicity profile based on in vitro experiments with normal cells, was synthesized much later and has not yet been tested in animal experiments.

MCF-7 cells = assay: Viability of MCF-7 breast cancer cells; assay type: cell-based, human; settings: 0-200 μM, 72 hours, MTT
Procedure: (§1) To quantify cell death, around the time when significant and characteristic morphological changes took place, cells were pulse-labeled for 10 minutes with [^3H]thymidine to measure DNA activity as described elsewhere [Tomono, M. and Kiss, Z. (1995), “Ethanol enhances the stimulatory effects of insulin and insulin-like growth factor-I on DNA synthesis in NIH 3T3 fibroblasts,” Biochem. Biophys. Res. Commun. 208, 63-67]. Also, cells were collected as suspensions using trypsin, an established method in cell biology, followed by re-plating of cells in fresh tissue culture medium. If no viable cells were obtained after one week in culture, it meant that the cells at the time of re-plating were dead. Survival values obtained with untreated cells were considered 100%. For the determination of relative number of viable cells after treatments, in most cases the MTT assay was used. This calorimetric assay is based on the ability of living cells, but not dead cells, to reduce 3-(4,5-dimethyl thiazol-2-yl)-2,5-diphenyltetrazolium bromide [Carmichael, J, De Graff, W. G., Gazdar, A. F., Minna, J. D. and Mitchell, J. B. (1987), “Evaluation of tetrazolium-based semi-automated calorimetric assay: Assessment of chemosensitivity testing,” Cancer Res. 47, 936-942]. For this assay, cells were plated in 96-well plates, and the MTT assay was performed both in untreated and treated cell cultures. The MTT assay also was performed at the start of treatments to allow assessment of proliferation rates in the control and treated cell cultures.
About 50% confluent cultures of MCF-7 cells, cultured in 12-well plates in Dulbecco's modified Eagle's medium (DMEM) supplemented with 10% FBS, were either untreated (FIG. 3A), or were treated with 100 μM CCDTHT (CCompound3) for 72 hours (FIG. 3B). […] This experiment was repeated three times with similar results. In some experiments, cells from the CCDTHT-treated cultures were seeded into 96-well plates, and the MTT assay was performed 96 hours later to test for viable cells.
(§2) The NIH 3T3 (normal) mouse fibroblast, A431 human epidermoid adenocarcinoma, and MCF-7 human breast cancer cells were cultured in DMEM medium containing 10% FBS. The MEL-28 human melanoma cells were cultured in MEM medium containing 10% FBS. The HT-29 human colon adenocarcinoma cells were cultured in McCoy's 5a medium containing 10% FBS. The A549 human lung carcinoma cells were maintained in Ham's F12K medium containing 10% FBS. Cells were seeded into 96-well plates and treated at ˜70-90% confluency. Two hours before treatments the medium was changed for fresh 10% serum medium, and then the cells were incubated for 72 hours in the presence of 0-200 μM of CCompound1 (●) or CCompound3 (CCDTHT) (▴), as indicated. The MTT assay was used to determine cell viability after treatments. The values, shown in FIGS. 5A-5F and expressed as percent decrease in viability compared to the untreated control cells, are the mean±std. dev. of 8 incubations in one experiment. Similar results were obtained in another experiment.
NIH 3T3, AN3CA, HT-29, MEL-28, and MCF-7 cells were cultured as described earlier. Cells were seeded into 96-well plates; when cells were ˜80-90% confluent, the medium was changed for fresh 10% serum-containing medium, followed by incubations for 72 hours in the absence (□) or presence of 100 μM CCDTHT ? , 2 mM ethanolamine (Etn) ? , or 100 μM CCDTHT+2 mM Etn (▪). The MTT assay was used to determine cell viability. […]

A-431 cells = assay: Viability of A-431 epidermoid adenocarcinoma cells (MTT assay); assay type: cell-based, human; settings: 0-200 μM, 72 hours, MTT
Procedure: as §1, §2
(§3) NIH3T3, T47D, A-431, HT-29, and MEL-28 cells were cultured as indicated earlier. CaOV-3 human ovarian cancer cells were cultured in DMEM containing 10% FBS. ZR-75-1 human estrogen receptor-positive breast cancer cells were maintained in RPMI 1640 medium supplemented with 10% FBS. HTB-157 human fetal fibroblasts, MEL-24 human malignant melanoma cells, Hep G2 human hepatoblastoma cells, and CaCO-2 human colon adenocarcinoma cells were maintained in Eagles's MEM containing 10% FBS. MB-231 human estrogen receptor-negative breast cancer cells were maintained in Leibovitz's L-15 medium supplemented with 10% FBS. Cells were seeded into 96-well plates and treated at ˜70-90% confluency. Two hours prior to treatments the medium was changed for fresh 10% serum medium, and then the cells were incubated for 10 days in the absence (□) or presence of 50 μM CCDTHT ? or 100 μM CCDTHT (▪). The medium was changed and the cells were re-treated on days 3 and 6. The MTT assay was used to determine cell viability on day 10. The data, shown in FIG. 6, are the mean±std. dev. of 8 incubations in one experiment. (The experiment was repeated twice with similar results).
(§4) NIH 3T3, MEL-28, MEL-24, CaOV-3, ZR-75-1, and T47D cells were cultured as described above. The OVCAR human ovarian cancer cells were cultured in DMEM containing 10% FBS. Cells were seeded into 96-well plates and used at ˜60-80% confluency. […]

NIH 3T3 cells = assay: Viability of NIH 3T3 normal fibroblasts (MTT assay); assay type: cell-based; settings: 0-200 μM, 72 hours, MTT
Procedure: as §1, §2, §3, §4

choline transport = assay: [14C]choline uptake and metabolism in AN3CA, MCF-7 and MEL-28 cancer cells; assay type: cell-based, human
Procedure: MEL-28 and MCF-7 cells were cultured in MEM medium supplemented with 10% fetal bovine serum (FBS) and in DMEM medium supplemented with 10% FBS, respectively. The AN3CA human endometrial adenocarcinoma cells were maintained in Eagle's MEM containing 10% FBS. Cancer cells were grown up to confluency in 12-well plates in 10% fetal-bovine serum-containing medium, then incubated in the presence of 1 μCi of [methyl-^14C]choline (bought from Amersham; Piscataway, N.J.) for 2 hours. Cells were first rapidly (within 30 seconds) washed three times with 4 ml of serum-free medium, then extracted with ice-cold methanol. This was followed by the determination of cellular free radiolabeled choline and phosphocholine (PCho) by column chromatography as described earlier [Kiss, Z. and Crilly, K. S. (1995), “Tamoxifen inhibits uptake and metabolism of ethanolamine and choline in multidrug-resistant, but not in drug-sensitive, MCF-7 human breast carcinoma cells,” FEBS Lett. 360, 165-168], and the separation and determination of radiolabeled phosphatidylcholine (PtdCho) by thin layer chromatography as indicated in Kiss [Kiss, Z. (1996), “Direct proof that phorbol ester accelerates the use of choline phosphate for phosphatidylcholine synthesis in intact cells,” Arch. Biochem. Biophys. 335, 191-196].
MCF-7 and MEL-28 cells were cultured as described earlier. The AN3CA human endometrial adenocarcinoma cells were maintained in Eagle's MEM containing 10% FBS. Each cell type was grown in 12-well plates to confluency and then incubated with 1 μCi of [methyl-^14C]choline for 2 hours in the absence (□) or presence of 100 μM CCDTHT ? or 0.5 mM HC-3 (▪), followed by the determination of cellular contents of radiolabeled choline (A), PCho (B) and PtdCho (C), as indicated in FIG. 9. […] Thus, if both CCDTHT and HC-3 influenced cell viability solely via inhibition of choline metabolism, then these agents should similarly affect cell viability, at least at the concentrations used in the choline transport experiment.

[2] = cited from earlier work

## Cc1c(OCC(O)C[N+](C)(C)C)cc2c(=O)c3ccccc3sc2c1C.[Cl-] (stereo not shown) [CCcompound1, [3-(3,4-Dimethyl-9-oxo-9H-thioxanthen-2-yloxy)-2-hydroxypropyl]trimethyl-ammonium chloride, reference compound]
[1]
  tolerability: similarly well tolerated
MCF-7 cells
  decrease in viability, MCF-7: similarly large effects
A-431 cells
  decrease in viability, A-431: similarly large effects
NIH 3T3 cells
  toxic effects in NIH 3T3 (normal) fibroblast cultures: none of these compounds exerted major toxic effects

## C[N+]1(C)CCOC(O)(c2ccc(-c3ccc(C4(O)C[N+](C)(C)CCO4)cc3)cc2)C1.[Br-].[Br-] (stereo not shown) [HC-3]
Choline transport; 100 μM CCDTHT or 0.5 mM HC-3, 2 hours, each cell line
  inhibitory effects on choline uptake and metabolism (choline, PCho, PtdCho): comparably strong inhibitory effects
Choline transport; 0.1 mM
  inhibition of choline transport: 20-25%

B1: PALP: human placental alkaline phosphatase, highly purified from commercial (Sigma-Aldrich) PALP (protein, UniProt P05187 23-506, looked up)
Alkaline phosphatase, …: IIPVEEENPDFWNREAAEALGAAKKLQPAQTAAKNLIIFLGDGMGVSTVTAARILKGQKKDKLGPEIPLAMDRFPYVALSKTYNVDKHVPDSGATATAYLCGVKGNFQTIGLSAAARFNQCNTTRGNEVISVMNRAKKAGKSVGVVTTTRVQHASPAGTYAHTVNRNWYSDADVPASARQEGCQDIATQLISNMDIDVILGGGRKYMFRMGTPDPEYPDDYSQGGTRLDGKNLVQEWLAKRQGARYVWNRTELMQASLDPSVTHLMGLFEPGDMKYEIHRDSTLDPSLMEMTEAALRLLSRNPRGFFLFVEGGRIDHGHHESRAYRALTETIMFDDAIERAGQLTSEEDTLSLVTADHSHVFSFGGYPLRGSSIFGLAPGKARDRKAYTVLLYGNGPGYVLKDGARPDVTESESGSPEYRQQSAVPLDEETHAGEDVAVFARGPQAHLVHGVQEQTFIAHVMAFAACLEPYTACDLAPPAGTTD
[2]
  half-life time: 120 to 140 h
